This note sets out measurements from PMC10883716, “Conformational dynamics of adenylate kinase in crystals” (Structural Dynamics, 2024).

The target in assay [1] is T1, AKign (adenylate kinase from Methanotorrus igneus) (Methanotorris igneus, UniProt P43408).
T1 construct: gene adkA; full length, residues 1-192; synthetic gene in pET21a, C-terminal His6 tag kept (disordered, unbuilt); E. coli BL21(DE3); homotrimer
Kind of assay: X-ray crystallography, […] A. It counts as binding. The following applies: 4 mM AMP, 8% PEG 8000, 100 mM magnesium acetate, sodium acetate pH 4.5, 20 °C; two per protomer, in AMP and ATP sites.

For assay [2], the target named is T1, AKign (adenylate kinase from Methanotorrus igneus). Kind of assay: X-ray crystallography, […] A. It counts as binding. The following applies: 4 mM Ap5A, 17% PEG 3350, 250 mM sodium malonate, 20 °C; one per protomer, spans AMP and ATP sites.

T1 sequence (P43408 whole entry, the tested form may be a part): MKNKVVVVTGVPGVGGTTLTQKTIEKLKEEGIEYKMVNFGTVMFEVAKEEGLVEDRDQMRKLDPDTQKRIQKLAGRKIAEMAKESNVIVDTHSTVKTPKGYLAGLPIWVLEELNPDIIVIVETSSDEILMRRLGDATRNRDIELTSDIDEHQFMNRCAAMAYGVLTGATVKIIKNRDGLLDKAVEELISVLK

In the case of `Nc1ncnc2c1ncn2[C@@H]1O[C@H](COP(=O)(O)O)[C@@H](O)[C@H]1O` [AMP], in assay [1], the “X-ray crystallography, 2.40 A” value is “AMP-bound AKign structure, which comprises two bound AMP molecules per AKign protomer”. `Nc1ncnc2c1ncn2[C@@H]1O[C@H](COP(=O)(O)OP(=O)(O)OP(=O)(O)OP(=O)(O)OP(=O)(O)OC[C@H]2O[C@@H](n3cnc4c(N)ncnc43)[C@H](O)[C@@H]2O)[C@@H](O)[C@H]1O` [Ap5A, P^1,P^5-di(adenosine 5′)-pentaphosphate]: in assay [2], the “X-ray crystallography, 2.25 A” value is listed as “We also solved the AKign structure with the bound inhibitor, Ap5A”.
